How the values were obtained:
[1] = target: T1, recombinant renin in human plasma (Homo sapiens, UniProt P00797); assay: Inhibition of renin in human plasma (quenched fluorescent peptide); format: biochemical; details: human EDTA plasma with 1 nM recombinant renin added; 37° C., 1 hour
T1 construct: purchased Proteos
T1 sequence (P00797 67-406): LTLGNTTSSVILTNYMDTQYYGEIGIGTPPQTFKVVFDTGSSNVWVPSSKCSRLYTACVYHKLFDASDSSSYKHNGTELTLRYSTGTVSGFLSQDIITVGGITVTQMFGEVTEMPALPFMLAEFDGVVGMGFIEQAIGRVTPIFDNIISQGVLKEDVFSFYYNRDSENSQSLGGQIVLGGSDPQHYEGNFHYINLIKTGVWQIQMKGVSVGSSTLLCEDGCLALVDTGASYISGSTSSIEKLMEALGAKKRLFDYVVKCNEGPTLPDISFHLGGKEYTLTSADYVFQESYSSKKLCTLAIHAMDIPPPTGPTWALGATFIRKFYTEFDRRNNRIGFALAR
Protocol: Human EDTA-collected plasma is rapidly thawed in warm water and centrifuged at 2900 g for 15 minutes at 4° C. The supernatant is collected and recombinant renin (Proteos) is added at a final concentration of 1 nM. […] The plate is incubated at 37° C. for 1 hour. […] Background fluorescence at t=0 is subtracted from the measurement at t=1 hour. Inhibitory activity of the compounds is expressed as IC50.

Human recombinant renin = target: T2, Human recombinant renin (Homo sapiens, UniProt P00797); assay: Inhibition of human recombinant renin (buffer assay, quenched fluorescent peptide); format: biochemical; details: buffer: 50 mM MOPS pH 7.4, 100 mM NaCl, 0.002% Tween 20; 37° C., 3 hours
T2 construct: purchased Proteos
T2 sequence (P00797 67-406): T1 sequence (P00797 67-406)
Protocol: Background fluorescence at t=0 is subtracted from the measurement at t=3 hours. Inhibitory activity of the compounds is expressed as IC50.

SMILES	IC50 [1] [pM]	IC50 (Human recombinant renin) [pM]
COCCCc1cc(CCCOC)c(Cl)c(CN(C(=O)[C@H]2CNCC[C@@]23OCc2cc(F)c(F)cc23)C2CC2)c1 (relative stereo) [Example 53]	1300	100
COCCCc1cc(CN(C(=O)[C@H]2CNCC[C@@]23OCc2cc(F)c(F)cc23)C2CC2)c2ccccc2n1 (relative stereo) [Example 48, (cis-1,3′)-N-Cyclopropyl-5,6-difluoro-N-{[2-(3-methoxypropyl)-4-quinolinyl]methyl}-3H-spiro[2-benzofuran-1,4′-piperidine]-3′-carboxamide]	2300	700
COCCc1cc(C)c(C)c(CN(C(=O)[C@H]2CNCC[C@@]23OCc2cc(F)c(F)cc23)C2CC2)c1 (relative stereo) [Example 45, (cis-1,3′)-N-Cyclopropyl-5,6-difluoro-N-[5-(2-methoxyethyl)-2,3-dimethylbenzyl]-3H-spiro[2-benzofuran-1,4′-piperidine]-3′-carboxamide]	600	100

Results, then the compound that gave them:

IC50 [1] [pM]	IC50 (Human recombinant renin) [pM]	SMILES
4500	1200	O=C([C@H]1CNCC[C@@]12OCc1cc(F)c(F)cc12)N(Cc1c[nH]c2cccc(F)c12)C1CC1 (relative stereo) [Example 56, (cis-1,3′)-N-cyclopropyl-5,6-difluoro-N-[(4-fluoro-1H-indol-3-yl)methyl]-3H-spiro[2-benzofuran-1,4′-piperidine]-3′-carboxamide]
3500	100	COCCCc1cc(CN(C(=O)[C@H]2CNCC[C@@]23OCc2cc(F)c(F)cc23)C2CC2)c2ncccc2c1 (relative stereo) [Example 54, (cis-1,3′)-N-Cyclopropyl-5,6-difluoro-N-{[6-(3-methoxypropyl)-8-quinolinyl]methyl}-3H-spiro[2-benzofuran-1,4′-piperidine]-3′-carboxamide]
